Results on nine compounds are retold here after patent publication US20250059198A1, “BRM DEGRADING COMPOUNDS AND ASSOCIATED METHODS OF USE” (Arvinas Operations, Inc., priority 2021, published 2025).

The target in this test is T1, BRM (Homo sapiens, UniProt P51531).
T1 construct: Western Blot Screen of BRM Degradation in SW1573 Cells; endogenous in cells; host or cells: SW1573 cells
The test can be described thus: BRM degradation (Dmax and DC50) in SW1573 cells, Western blot screen / In-Cell Western screen. It counts as cell-based. The conditions noted are these: overnight (18-20 hours) treatment; for Dmax: read-out: Dmax (%)** (% degraded). The method, then: To assess BRM degradation (Dmax and DC50) cells were seeded at 8000/well in 96-well black/clear-bottom plates in 180 μL DMEM growth media (containing 1% pen-strep, 1% HEPES and 10% FBS) per well. Plates were incubated overnight to allow adhesion. The next morning cells were treated by adding 20 μL of 10× target compound concentration (1% DMSO) to appropriate wells and returned to incubator for overnight (18-20 hours). The final DMSO concentration was 0.1%.
For lysing, adherent cells were washed once with 100 μL of DPBS. Cells were lysed in 40 μL of 1×RIPA+HALT protease inhibitor on ice for 10 minutes and frozen until use at −80° C. Thawed lysates were cleaned by filtration in 1.2 µm filter plates, or alternatively, were spun clean at 2300 g at 4° C. for 30 minutes.
For blotting, for each Western sample 30 μL of lysate was added to 10 μL of 4× LDS sample buffer, then denatured at 95° C. for 5 minutes in the thermal cycler and placed on ice. Samples were loaded on 4-15% Tris/Glycine gels and run for 25 minutes at 250 constant volts in 1× Tris/Glycine buffer with 4 μL of ladder and 12 μL of each sample loaded for each blot. Protein was transferred from gels to NC with BioRad Turbo dry-transfer unit with the Turbo/midi default program. All blots were rinsed with ddH2O and blocked for 1 hour at room temperature in 5% BSA in TBST (0.1%) on rocker. Blots were exposed to primary antibody in 5% BSA in TBST (0.1%) overnight at 4° C. on rocker (1:1000 for BRM (Cell Signaling Tech. cat #11966) and 1:2000 for alpha-tubulin (Cell Signaling Tech. cat #3873), a control protein. Blot was washed with TBST (0.1%) three times for 5 minutes on rocker at room temperature. Secondary antibody was added, and blots were incubated on a room temperature rocker for 1 hour with 1:18,000 anti-rabbit-HRP and/or anti-mouse-HRP in 5% BSA in TBST (0.1%). Blots were washed three times in TBST (0.1%) for 5 minutes at room temperature on the rocker. Signal was developed with Femto Maximum Sensitivity substrate for 4 minutes and blots read on ChemiDoc™.
To assess BRM degradation (Dmax and DC50), cells were seeded at 8000/well in 96-well black/clear-bottom plates in 180 μL DMEM growth media (containing 1% pen-strep, 1% HEPES and 10% FBS) per well. Plates were incubated overnight to allow adhesion. The next morning cells were treated by adding 20 μL of 10× compound (1% DMSO) to appropriate wells and returned to incubator for overnight (18-20 hours). The final DMSO concentration was 0.1%.
For processing, the plates were removed from incubator, the media was removed, and immediately 200 μL of cold (4° C.) DPBS was added to all wells. DPBS was then removed, and 50 μL of 4% paraformaldehyde (PFA) in DPBS (4° C.) was added to all wells, and the plates were incubated at room temperature for 20 minutes. PFA was then removed, and 200 μL of TBS-T containing 0.5% Triton X-100 was added to all wells, and the plates were incubated at room temperature for 30 minutes. TBS-T containing 0.5% Triton X-100 was then removed, and 50 μL of Li-Cor blocking solution was added, and the plates were incubated at room temperature for a minimum of one hour. The blocking solution was removed, and 50 μL of Li-Cor blocking solution containing primary antibody cocktail was added (1:1000 for BRM (Cell Signaling Tech. cat #11966) and 1:2000 for alpha-tubulin (Sigma cat #T6074), a control protein. Plates were then placed in cold room until the next day.
The next day plates were washed three times with TBS-T, 200 μL per well. Fifty […] of secondary antibody cocktail in LI-COR blocking solution (anti-rabbit_800 nm and anti-mouse_680 nm) was added to all wells (diluted 1:5000). The plates were incubated at room temperature for at least one hour while protected from light. The plates were washed twice with TBS-T, 200 μL per well.
To read each plate TBS-T was removed, and each plate was inverted tapped on a paper towel. […]

Each structure is given as a SMILES string.

T1 sequence (P51531 whole entry): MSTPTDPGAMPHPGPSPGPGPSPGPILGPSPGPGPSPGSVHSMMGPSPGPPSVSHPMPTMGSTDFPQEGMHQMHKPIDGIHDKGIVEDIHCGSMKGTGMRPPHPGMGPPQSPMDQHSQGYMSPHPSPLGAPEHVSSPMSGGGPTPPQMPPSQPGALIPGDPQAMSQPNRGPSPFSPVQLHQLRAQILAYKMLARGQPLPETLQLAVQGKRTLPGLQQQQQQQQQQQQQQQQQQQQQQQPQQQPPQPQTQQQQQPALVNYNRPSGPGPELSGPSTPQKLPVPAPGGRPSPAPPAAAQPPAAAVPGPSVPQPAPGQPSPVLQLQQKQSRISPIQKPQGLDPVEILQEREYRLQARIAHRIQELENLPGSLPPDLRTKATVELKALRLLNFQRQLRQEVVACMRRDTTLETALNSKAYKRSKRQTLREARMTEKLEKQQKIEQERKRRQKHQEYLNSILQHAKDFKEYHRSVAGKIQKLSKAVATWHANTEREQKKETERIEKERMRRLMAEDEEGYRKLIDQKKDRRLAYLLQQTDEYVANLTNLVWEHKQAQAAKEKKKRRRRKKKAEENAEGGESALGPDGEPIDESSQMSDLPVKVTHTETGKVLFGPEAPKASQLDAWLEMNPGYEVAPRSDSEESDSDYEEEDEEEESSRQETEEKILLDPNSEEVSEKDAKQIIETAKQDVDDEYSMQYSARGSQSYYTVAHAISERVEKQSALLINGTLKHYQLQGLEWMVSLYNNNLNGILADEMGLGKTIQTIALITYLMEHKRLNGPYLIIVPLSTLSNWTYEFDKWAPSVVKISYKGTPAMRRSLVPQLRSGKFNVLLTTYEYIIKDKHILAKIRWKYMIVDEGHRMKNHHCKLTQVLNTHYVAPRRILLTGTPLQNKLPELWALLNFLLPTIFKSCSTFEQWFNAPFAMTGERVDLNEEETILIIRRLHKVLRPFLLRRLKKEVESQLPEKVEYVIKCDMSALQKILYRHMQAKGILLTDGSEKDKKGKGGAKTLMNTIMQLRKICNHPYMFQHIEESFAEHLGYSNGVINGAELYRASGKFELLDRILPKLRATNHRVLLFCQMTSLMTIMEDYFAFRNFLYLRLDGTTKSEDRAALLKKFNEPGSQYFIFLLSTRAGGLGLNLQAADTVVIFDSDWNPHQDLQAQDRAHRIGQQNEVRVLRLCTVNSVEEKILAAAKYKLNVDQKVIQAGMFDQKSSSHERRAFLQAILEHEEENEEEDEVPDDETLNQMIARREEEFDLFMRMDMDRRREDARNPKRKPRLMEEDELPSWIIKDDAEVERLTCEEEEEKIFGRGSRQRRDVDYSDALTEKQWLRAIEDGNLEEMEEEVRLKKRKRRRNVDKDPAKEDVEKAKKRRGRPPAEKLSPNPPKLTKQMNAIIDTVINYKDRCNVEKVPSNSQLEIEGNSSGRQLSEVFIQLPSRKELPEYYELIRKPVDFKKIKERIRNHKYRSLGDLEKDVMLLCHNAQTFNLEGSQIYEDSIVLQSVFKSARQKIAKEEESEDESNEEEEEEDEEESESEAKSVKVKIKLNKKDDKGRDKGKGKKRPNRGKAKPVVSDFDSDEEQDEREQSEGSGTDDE

For `CC(C)[C@@H](C(=O)N1C[C@H](O)C[C@H]1C(=O)N[C@@H](C)c1ccc(C#N)cc1)c1cc(N2CCC(CN3CCC(O[C@H]4C[C@H](Oc5cc(N6CC7CCC(C6)N7c6cc(-c7ccccc7O)nnc6N)ccn5)C4)CC3)CC2)no1` [Compound 15, (2S,4R)-N-[(1S)-1-(4-cyanophenyl)ethyl]-4-hydroxy-1-[(2R)-3-methyl-2-{3-[4-({4-[(1r,3r)-3-[(4-{8-[3-amino-6-(2-hydroxyphenyl)pyridazin-4-yl]-3,8-diazabicyclo[3.2.1]octan-3-yl}pyridin-2-yl)oxy]cyclobutoxy]piperidin-1-yl}methyl)piperidin-1-yl]-1,2-oxazol-5-yl}butanoyl]pyrrolidine-2-carboxamide], the 50% degradation concentration (DC50) is 2.5 to 10 nM and the Dmax was more than 75%.

On to `CC(C)[C@@H](C(=O)N1C[C@H](O)C[C@H]1C(=O)N[C@@H](C)c1ccc(C#N)cc1)c1cc(N2CCC(CN3CCC(O[C@H]4C[C@H](Oc5cc(N6C7CCCC6CN(c6cc(-c8ccccc8O)nnc6N)C7)ccn5)C4)CC3)CC2)no1` [Compound 16, (2S,4R)-N-[(1S)-1-(4-cyanophenyl)ethyl]-4-hydroxy-1-[(2R)-3-methyl-2-{3-[4-({4-[(1r,3r)-3-[(4-{3-[3-amino-6-(2-hydroxyphenyl)pyridazin-4-yl]-3,9-diazabicyclo[3.3.1]nonan-9-yl}pyridin-2-yl)oxy]cyclobutoxy]piperidin-1-yl}methyl)piperidin-1-yl]-1,2-oxazol-5-yl}butanoyl]pyrrolidine-2-carboxamide], for which the DC50 is less than 2.5 nM and the Dmax was more than 75%.

Take `CC(C)[C@@H](C(=O)N1C[C@H](O)C[C@H]1C(=O)N[C@@H](C)c1ccc(C#N)cc1)c1cc(N2CCC(CN3CCC(O[C@H]4C[C@H](Oc5cc(N6C7CC6CN(c6cc(-c8ccccc8O)nnc6N)C7)ccn5)C4)CC3)CC2)no1` [Compound 17, (2S,4R)-N-[(1S)-1-(4-cyanophenyl)ethyl]-4-hydroxy-1-[(2R)-3-methyl-2-{3-[4-({4-[(1r,3r)-3-[(4-{3-[3-amino-6-(2-hydroxyphenyl)pyridazin-4-yl]-3,6-diazabicyclo[3.1.1]heptan-6-yl}pyridin-2-yl)oxy]cyclobutoxy]piperidin-1-yl}methyl)piperidin-1-yl]-1,2-oxazol-5-yl}butanoyl]pyrrolidine-2-carboxamide]: the DC50 is less than 2.5 nM and the Dmax was more than 75%.

`Cc1ncsc1-c1ccc([C@H](C)NC(=O)[C@@H]2C[C@@H](O)CN2C(=O)[C@H](c2cc(N3C4CCC3CC(CN3CCC(O[C@H]5C[C@H](Oc6cc(N7C8CCC7CN(c7cc(-c9ccccc9O)nnc7N)C8)ccn6)C5)CC3)C4)no2)C(C)C)cc1` (stereo partly drawn) [Compound 18, (2S,4R)-4-hydroxy-N-[(1S)-1-[4-(4-methyl-1,3-thiazol-5-yl)phenyl]ethyl]-1-[(2S)-3-methyl-2-{3-[3-({4-[(1r*,3r*)-3-[(4-{3-[3-amino-6-(2-hydroxyphenyl)pyridazin-4-yl]-3,8-diazabicyclo[3.2.1]octan-8-yl}pyridin-2-yl)oxy]cyclobutoxy]piperidin-1-yl}methyl)-8-azabicyclo[3.2.1]octan-8-yl]-1,2-oxazol-5-yl}butanoyl]pyrrolidine-2-carboxamide]: the DC50 was not below 30 nM.

Consider `Cc1ncsc1-c1ccc([C@H](C)NC(=O)[C@@H]2C[C@@H](O)CN2C(=O)[C@@H](c2cc(N3CCC(CN4CCC(O)(C#C[C@H]5C[C@H](Oc6cc(N7C8CCC7CN(c7cc(-c9ccccc9O)nnc7N)C8)ccn6)C5)CC4)CC3)no2)C(C)C)cc1` [Compound 19, (2S,4R)-4-hydroxy-1-[(2R)-2-(3-{4-[(4-hydroxy-4-{2-[(1r,3r)-3-[(4-{3-[3-amino-6-(2-hydroxyphenyl)pyridazin-4-yl]-3,8-diazabicyclo[3.2.1]octan-8-yl}pyridin-2-yl)oxy]cyclobutyl]ethynyl}piperidin-1-yl)methyl]piperidin-1-yl}-1,2-oxazol-5-yl)-3-methylbutanoyl]-N-[(1S)-1-[4-(4-methyl-1,3-thiazol-5-yl)phenyl]ethyl]pyrrolidine-2-carboxamide], for which the DC50 is less than 2.5 nM and the Dmax was more than 75%.

Take `Cc1ncsc1-c1ccc([C@H](C)NC(=O)[C@@H]2C[C@@H](O)CN2C(=O)[C@@H](c2cc(N3CCC(CN4CCC(O[C@H]5C[C@H](N6CCC(C#N)(CN7C8CCC7CN(c7cc(-c9ccccc9O)nnc7N)C8)CC6)C5)CC4)CC3)no2)C(C)C)cc1` [Compound 20, (2S,4R)-4-hydroxy-N-[(1S)-1-[4-(4-methyl-1,3-thiazol-5-yl)phenyl]ethyl]-1-[(2R)-3-methyl-2-{3-[4-({4-[(1r,3r)-3-[4-({3-[3-amino-6-(2-hydroxyphenyl)pyridazin-4-yl]-3,8-diazabicyclo[3.2.1]octan-8-yl}methyl)-4-cyanopiperidin-1-yl]cyclobutoxy]piperidin-1-yl}methyl)piperidin-1-yl]-1,2-oxazol-5-yl}butanoyl]pyrrolidine-2-carboxamide]: the DC50 is less than 2.5 nM and the Dmax is more than 75%.

Consider `Cc1ncsc1-c1ccc([C@H](C)NC(=O)[C@@H]2C[C@@H](O)CN2C(=O)[C@@H](c2cc(N3C4CCC3CC(CN3CCC(O[C@H]5C[C@H](Oc6cc(N7C8CCC7CN(c7cc(-c9ccccc9O)nnc7N)C8)ccn6)C5)CC3)C4)no2)C(C)C)cc1` (stereo partly drawn) [Compound 21, (2S,4R)-4-hydroxy-N-[(1S)-1-[4-(4-methyl-1,3-thiazol-5-yl)phenyl]ethyl]-1-[(2R)-3-methyl-2-{3-[3-({4-[(1r,3r)-3-[(4-{3-[3-amino-6-(2-hydroxyphenyl)pyridazin-4-yl]-3,8-diazabicyclo[3.2.1]octan-8-yl}pyridin-2-yl)oxy]cyclobutoxy]piperidin-1-yl}methyl)-8-azabicyclo[3.2.1]octan-8-yl]-1,2-oxazol-5-yl}butanoyl]pyrrolidine-2-carboxamide], for which the DC50 was less than 2.5 nM and the Dmax was more than 75%.

With `Cc1ncsc1-c1ccc([C@H](C)NC(=O)[C@@H]2C[C@@H](O)CN2C(=O)[C@@H](c2cc(N3CCC(CN4CCC(O[C@H]5C[C@H](N6CCC(C(C)(C)N7C8CCC7CN(c7cc(-c9ccccc9O)nnc7N)C8)CC6)C5)CC4)CC3)no2)C(C)C)cc1` [Compound 22, (2S,4R)-4-hydroxy-N-[(1S)-1-[4-(4-methyl-1,3-thiazol-5-yl)phenyl]ethyl]-1-[(2R)-3-methyl-2-{3-[4-({4-[(1r,3r)-3-[4-(2-{3-[3-amino-6-(2-hydroxyphenyl)pyridazin-4-yl]-3,8-diazabicyclo[3.2.1]octan-8-yl}propan-2-yl)piperidin-1-yl]cyclobutoxy]piperidin-1-yl}methyl)piperidin-1-yl]-1,2-oxazol-5-yl}butanoyl]pyrrolidine-2-carboxamide], the DC50 was less than 2.5 nM and the Dmax is more than 75%.

In the case of `Cc1ncsc1-c1ccc([C@H](C)NC(=O)[C@@H]2C[C@@H](O)CN2C(=O)[C@@H](c2cc(N3CCC(CN4CCC(O[C@H]5C[C@H](N6CCO[C@H](CN7C8CCC7CN(c7cc(-c9ccccc9O)nnc7N)C8)C6)C5)CC4)CC3)no2)C(C)C)cc1` [Compound 23, (2S,4R)-4-hydroxy-N-[(1S)-1-[4-(4-methyl-1,3-thiazol-5-yl)phenyl]ethyl]-1-[(2R)-3-methyl-2-{3-[4-({4-[(1r,3r)-3-[(2S)-2-({3-[3-amino-6-(2-hydroxyphenyl)pyridazin-4-yl]-3,8-diazabicyclo[3.2.1]octan-8-yl}methyl)morpholin-4-yl]cyclobutoxy]piperidin-1-yl}methyl)piperidin-1-yl]-1,2-oxazol-5-yl}butanoyl]pyrrolidine-2-carboxamide], the DC50 is less than 2.5 nM and the Dmax is more than 75%.
